Data set [1] in a line: In vivo pharmacokinetic study in mice. Particulars: male, mouse, plasma, CD-1 mice. How it is done: (§1) Intravenous injection: 40% HP-β-CD in water; intragastric administration: 0.2% HPC+0.5% Tween80 in water.
6 male mice. Fasting treatment was performed in the evening before the administration, with free access to water. During the experiment, the mice were allowed to eat and drink freely, and administered by intravenous injection or gavage. After administration, the animal status was observed, and abnormal behaviors were recorded. Blood was collected from the orbit at 0.0833, 0.25, 1, 2, 4, 8, and 24 hours after intravenous injection, and at 0.25, 0.5, 1, 2, 4, 6, 8, and 24 hours after intragastric administration. 20 μL of plasma sample was taken and added with 250 μL of acetonitrile (containing dexamethasone as an internal standard) to precipitate proteins. The mixture was centrifuged at 4° C. and 4000 rpm for 20 minutes, and 180 μL of the supernatant was taken and mixed with 180 μL of an aqueous solution containing 0.1% formic acid in a 96-well plate. Then, 10 μL of the sample was taken for LC-MS/MS detection.
(§2) The standard curve was established using the internal standard method, with the theoretical standard curve concentration as the X-axis and the peak area ratio as the Y-axis (peak area of the test compound/peak area of internal standard). Linear regression method (weighting factor 1/X2) was used, R^2>0.9900. Unknown samples were calculated by the standard curve. Pharmacokinetic parameters were calculated by the non-compartmental analysis model of WinNonlin 8.2 software and were presented in a report, including Clint, Cmax, AUC, etc.

Data set [2] is described as follows: Metabolic stability in liver microsomes. Particulars: for microsomal CLint at 1 μM: read-out: In vitro Clint (μL/min/mg protein); for half-life at 1 μM: read-out: In vitro t1/2. The data set is classed as in vitro ADME. How it is done:
The test compound and the positive control compound (dextromethorphan as a control compound) were dissolved respectively in DMSO to prepare a stock solution with a concentration of 10 mM, and the above stock solution was diluted into 200 μM working solution with DMSO. 8.709 g of potassium hydrogen phosphate (K2HPO4) was dissolved in 950 mL of water, and the pH value of the solution was adjusted to 7.4 with hydrochloric acid, and then the volume was adjusted to 1000 mL with water. After filtration using a 0.22 μm filter membrane, the mixture was stored in a 4° C. refrigerator for later use. After liver microsomes of various species (protein concentration of 20 mg/mL) were thawed in a 37° C. water bath, the liver microsomes were diluted with a phosphate buffer respectively to obtain a liver microsome working solution with protein concentration of 0.629 mg/mL. 5 mM NADPH solution was prepared using the above phosphate buffer for later use. 1 mg/mL stock solution of terfenadine/tolbutamide was prepared with DMSO and then diluted with a 50% methanol/50% acetonitrile mixed solution to a reaction stop solution containing 5/10 ng/mL (terfenadine/tolbutamide) internal standard.
238.5 μL of liver microsome working solutions of various species were added to a 1.1 mL microtube, and 1.5 μL of the test compound working solution or the positive control compound (dextromethorphan) working solution (200 μM) was added respectively, mixed well, and pre-incubated in a 37° C. water bath for 5 minutes. 60 μL of NADPH solution was added to start the reaction, and after mixing well, at the time points of 0, 5, 15, 30, and 60 minutes after the reaction, 30 μL of the reaction mixture was respectively pipetted and added to 300 μL of the reaction stop solution. Samples from all time points were vortexed vigorously for 1 minute and centrifuged at 4000 rpm for 15 minutes at 4° C. 100 μL of the supernatant was added to 100 μL of pure water and mixed well for LC-MS/MS analysis.
The slope (ke) was determined by plotting the natural logarithm of the percentage of compound remaining against time, and the Tin and intrinsic clearance (CLint) were calculated based on the first-order kinetic formula: […]
The compound remaining rate is calculated as follows:
Intrinsic clearance CLint (μL/min/mg protein)=0.693*1000/T1/2/protein concentration (0.5 mg protein/mL)

Data set [3] in a line: In vivo pharmacokinetic study in rats. Particulars: male, rat, plasma, SD rats. How it is done: as §1
6 male rats. Fasting treatment was performed in the evening before the administration, with free access to water. During the experiment, the rats were allowed to eat and drink freely, and administered by intravenous injection or gavage. After administration, the animal status was observed, and abnormal behaviors were recorded. Blood was collected via jugular vein puncture at 0.0833, 0.25, 1, 2, 4, 8, and 24 hours after intravenous injection; Blood was collected via jugular vein puncture at 0.25, 0.5, 1, 2, 4, 6, 8, and 24 hours after intragastric administration. 50 μL of plasma sample was taken and added with 500 μL of acetonitrile (containing dexamethasone as an internal standard) to precipitate proteins. The mixture was centrifuged at 4° C. and 4000 rpm for 20 minutes, and 300 μL of the supernatant was taken and mixed with 300 μL of Watsons aqueous solution in a 96-well plate. Then, 5 μL of the sample was taken for LC-MS/MS detection.
as §2

A further data set deals with CYP2C19 (Homo sapiens (Human), UniProt P33261). In words: Inhibitory activity on CYP isoenzymes at a single concentration. The data set is classed as in vitro ADME. Particulars: pH 7.4, probe mephenytoin; final compound concentration 10 μM; human liver microsomes; substrate mephenytoin; NI: no inhibition; read-out: Inhibition rate (%) CYP2C19. The text has this: (§3) The buffer was filtered through a 0.45 μm filter.
Sequence of CYP2C19 (P33261 whole entry): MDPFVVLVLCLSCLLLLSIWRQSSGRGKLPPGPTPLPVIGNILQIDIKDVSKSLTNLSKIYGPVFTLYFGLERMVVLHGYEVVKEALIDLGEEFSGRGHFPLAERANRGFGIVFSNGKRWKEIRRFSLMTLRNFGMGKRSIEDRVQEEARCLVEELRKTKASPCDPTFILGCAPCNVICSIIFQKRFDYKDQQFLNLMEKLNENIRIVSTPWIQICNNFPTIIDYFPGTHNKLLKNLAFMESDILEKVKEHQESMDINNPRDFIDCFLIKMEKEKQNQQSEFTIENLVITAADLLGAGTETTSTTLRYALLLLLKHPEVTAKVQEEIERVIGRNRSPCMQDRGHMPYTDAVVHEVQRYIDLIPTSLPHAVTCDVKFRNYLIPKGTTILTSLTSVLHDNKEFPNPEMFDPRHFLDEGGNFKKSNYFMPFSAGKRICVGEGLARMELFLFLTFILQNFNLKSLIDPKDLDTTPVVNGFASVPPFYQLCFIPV
(Liver microsomes are a subcellular fraction often used to study metabolism.)

Another data set concerns the target CYP2C9 (Homo sapiens (Human), UniProt P11712). Described as above. The class given is in vitro ADME. Particulars: pH 7.4, probe diclofenac; final compound concentration 10 μM; human liver microsomes; substrate diclofenac; read-out: Inhibition rate (%) CYP2C9.
Excerpt: as §3

The test system of a further data set is CYP3A4/5. The description is as above. The data set is classed as in vitro ADME. Particulars: final compound concentration 10 μM, human liver microsomes.
Excerpt: as §3

The target in the next data set is CYP2D6 (Homo sapiens (Human), UniProt P10635). The description is as above. The data set is classed as in vitro ADME. As to conditions: pH 7.4, probe dextromethorphan; final compound concentration 10 μM; human liver microsomes; substrate dextromethorphan; read-out: Inhibition rate (%) CYP2D6.
Sequence of CYP2D6 (P10635 whole entry): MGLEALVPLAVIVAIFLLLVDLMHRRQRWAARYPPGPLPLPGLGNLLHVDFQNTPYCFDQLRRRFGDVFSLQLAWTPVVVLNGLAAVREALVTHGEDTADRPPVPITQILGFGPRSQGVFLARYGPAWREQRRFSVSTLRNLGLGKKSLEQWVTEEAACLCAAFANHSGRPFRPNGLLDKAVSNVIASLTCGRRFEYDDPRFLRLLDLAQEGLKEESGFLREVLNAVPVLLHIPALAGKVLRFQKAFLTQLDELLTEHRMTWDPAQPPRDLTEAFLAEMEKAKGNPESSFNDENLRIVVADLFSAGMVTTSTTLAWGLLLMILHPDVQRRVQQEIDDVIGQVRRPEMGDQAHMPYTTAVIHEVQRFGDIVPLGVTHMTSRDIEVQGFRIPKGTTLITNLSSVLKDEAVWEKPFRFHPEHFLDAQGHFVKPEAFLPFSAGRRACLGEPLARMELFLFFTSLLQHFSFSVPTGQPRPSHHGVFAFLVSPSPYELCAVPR
Excerpt: as §3

The mark [4] stands for this setting: ICR/CD-1, pH 7.4, Mouse liver microsomes.
Setting [5] is: Sprague Dawley, pH 7.4, Rat liver microsomes.
Where [6] appears, read: pH 7.4, probe midazolam, substrate midazolam, read-out: Inhibition rate (%) CYP3A4/5 (Midazolam).

Where two headings read alike, the source gives them in different places.

By AUC(0-t) is commonly meant the area under the concentration-time curve up to a stated or last time point. Read a high AUC(0-t) as high exposure. By Cmax is commonly meant the highest concentration seen after dosing.

Sequence of CYP2C9 (P11712 whole entry): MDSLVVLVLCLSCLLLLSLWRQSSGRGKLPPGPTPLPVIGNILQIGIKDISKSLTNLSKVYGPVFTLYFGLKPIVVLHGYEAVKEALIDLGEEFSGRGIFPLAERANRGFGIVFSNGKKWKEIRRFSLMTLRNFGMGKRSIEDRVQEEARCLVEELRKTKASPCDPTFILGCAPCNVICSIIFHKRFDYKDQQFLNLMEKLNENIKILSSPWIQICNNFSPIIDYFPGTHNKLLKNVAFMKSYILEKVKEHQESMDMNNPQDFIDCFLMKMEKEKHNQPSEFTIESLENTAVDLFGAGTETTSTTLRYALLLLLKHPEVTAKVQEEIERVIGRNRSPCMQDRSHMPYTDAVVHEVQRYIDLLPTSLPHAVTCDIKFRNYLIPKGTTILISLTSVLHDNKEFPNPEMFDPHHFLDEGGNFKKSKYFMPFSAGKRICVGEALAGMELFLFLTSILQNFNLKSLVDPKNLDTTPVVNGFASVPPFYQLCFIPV

Turning to `[2H]C([2H])([2H])Oc1nc(C(=O)NS(C)(=O)=O)ccc1NCC#Cc1cc2c(N[C@@H]3CCN(C)C[C@@H]3F)cccn2c1CC(F)(F)F` [Cpd-2, 5-((3-(8-(((3S,4R)-3-Fluoro-1-methylpiperidin-4-yl)amino)-3-(2,2,2-trifluoroethyl)indolizin-2-yl)prop-2-yn-1-yl)amino)-6-(methoxy-d3)-N-(methylsulfonyl)picolinamide], the AUC(0-t) was found to be 1.7 µM·h in data set [1] (IV 1 mg/kg), 15.7 µM·h in data set [1] (PO 10 mg/kg), 8.4 µM·h in data set [3] (IV 1 mg/kg) and 58.4 µM·h in data set [3] (PO 10 mg/kg). The results for the Cmax in data set [1] (PO 10 mg/kg) and in data set [3] (PO 10 mg/kg) were 5.9 µM and 8.9 µM, respectively. Also, the microsomal CLint at 1 μM is 12.6 µL/min/mg in data set [2] (setting [4]); 11.7 µL/min/mg in data set [2] (setting [5]); less than 5.4 µL/min/mg in data set [2] (pH 7.4, Human liver microsomes). Further, the half-life at 1 μM is 1.83 h in data set [2] (setting [4]); 1.98 h in data set [2] (setting [5]); greater than 4.27 h in data set [2] (pH 7.4, Human liver microsomes). Further, the inhibition at 10 min, 10 µM was 8.4% at CYP2C19, 8.9% at CYP2C9, 8.7% in the data set with CYP3A4/5 (setting [6]) and 7.2% on CYP2D6.

Regarding `COc1nc(C(=O)NS(C)(=O)=O)ccc1NCC#Cc1cc2c(N[C@@H]3CCN(C)C[C@@H]3F)cccn2c1CC(F)(F)F` [Cpd-1, 5-((3-(8-(((3S,4R)-3-Fluoro-1-methylpiperidin-4-yl)amino)-3-(2,2,2-trifluoroethyl)indolizin-2-yl)prop-2-yn-1-yl)amino)-6-methoxy-N-(methylsulfonyl)picolinamide], the microsomal CLint at 1 μM in data set [2] (setting [4]) was determined as 13.7 µL/min/mg; in data set [2] (setting [5]), 35 µL/min/mg; in data set [2] (pH 7.4, Human liver microsomes), 7.3 µL/min/mg. The half-life at 1 μM in data set [2] (setting [4]) is 1.2 h; in data set [2] (setting [5]), 0.467 h; in data set [2] (pH 7.4, Human liver microsomes) it was 2.27 h. For the same compound, the inhibition at 10 min, 10 µM on CYP2C9 came to 6.7%; in the data set with CYP3A4/5 (setting [6]), 9.8%; in the data set with CYP3A4/5 (pH 7.4, probe testosterone, substrate testosterone, NI: no inhibition, read-out: Inhibition rate (%) CYP3A4/5 (Testosterone)) it was 3.7%; at CYP2D6 it was 1.6%.

Source of the values: patent US20250304578A1, “NITROGEN-CONTAINING FUSED HETEROCYCLIC COMPOUNDS OF N-SULFONAMIDE AND USE THEREOF” (NUTSHELL THERAPEUTICS (SHANGHAI) CO., LTD., priority 2023, published 2025).
